According to patent publication US6448202B1, “Withering-preventing and quick-acting nutrition supplementing agent for gramineous plants” (Ajinomoto Co., Inc., priority 1999, dated 2002):

System: lawn grass (European grass, evergreen lawn grass)
Test: Hydroponic cultivation of a lawn grass: withering prevention and growth
Type: in vivo
Conditions: for Average root length / Leaf length MAX. / Leaf length MIN. / Total weight of living plant: 5 stocks; for Number of days till the plants were withered: from transplantation till about 70 percent of the leaves were withered
Protocol: Seedlings of a lawn grass (European grass, evergreen lawn grass) were cultivated and divided into eight groups of A to H, one group being composed of 80 stocks. In the groups B to H, inosine and uridine were added to each hydroponic liquid in such amount that the concentration became as shown in the table, and proline was diluted with water such that the concentration became as shown in the table and sprayed onto the leaves every day. Group A was the control.
On the 35th day, five average stocks which had not been withered were sampled from each group. […] In the table, the number of days till the plants were withered means the number of days from transplantation of the seedlings till about 70 percent of the leaves were withered.

[1] = group D: 2 ppm proline sprayed onto leaves every day, 35th day
[2] = group F: 35 ppm proline sprayed onto leaves every day, 35th day
[3] = group G: 0.1 ppm proline sprayed onto leaves every day, 35th day
[4] = group B: 2 ppm inosine in hydroponic liquid
[5] = group B: 2 ppm inosine in hydroponic liquid, 35th day

Structure (SMILES): O=C(O)[C@@H]1CCCN1 [proline]
- Remarks (group D: 2 ppm proline): Both leaves and steins
- Average root length [1]: 3 cm
- Leaf length MAX. [1]: 21 cm
- Leaf length MIN. [1]: 12 cm
- Total weight of living plant [1]: 0.54 g
- Number of days till the plants were withered (group D: 2 ppm proline): 38 days
- Remarks (group F: 35 ppm proline): Partially wilted.
- Average root length [2]: 2 cm
- Leaf length MAX. [2]: 20 cm
- Leaf length MIN. [2]: 8 cm
- Total weight of living plant [2]: 0.28 g
- Number of days till the plants were withered (group F: 35 ppm proline): 28 days
- Remarks (group G: 0.1 ppm proline): Partially wilted.
- Average root length [3]: 2 cm
- Leaf length MAX. [3]: 19 cm
- Leaf length MIN. [3]: 7 cm
- Total weight of living plant [3]: 0.22 g
- Number of days till the plants were withered (group G: 0.1 ppm proline): 27 days
- Growth at the root, leaf length and total weight of the living plants (proline-treated plot, especially at a concentration of 2 ppm, 35th day): better growth

Structure (SMILES): OC[C@H]1O[C@@H](n2cnc3c(O)ncnc32)[C@H](O)[C@@H]1O [inosine, reference compound]
- Remarks [4]: Wilted and partially
- Average root length [5]: 2 cm
- Leaf length MAX. [5]: 27 cm
- Leaf length MIN. [5]: 8 cm
- Total weight of living plant [5]: 0.22 g
- Number of days till the plants were withered [4]: 25 days
